Tests used:
[1] = biological target: T1, Aurora B (Homo sapiens, UniProt Q96GD4); experiment: Aurora B inhibition assay (Z-Lyte); format: biochemical; details: read-out: IC50 Ranges Aurura B
T1 construct: purchased Invitrogen PV3970
Method: Aurora B inhibition was determined using the Z-Lyte assay kit from Invitrogen. […] The % inhibition values were determined according to the manufacturer's directions and IC50 values were obtained using a non-linear 4 point logistic curve fit (XLfit4, IDBS).

[2] = tested on: A549 lung cancer cell line; experiment: Cell growth inhibition, Sulforhodamine B (SRB) assay; format: cell-based; details: Homo sapiens, A549, 120 h, read-out: Cell Line GI50 Range A549
Method: (§1) Aliquots (20 μl) from each concentration were overlaid to 80 μl of the pre-seeded cells in the 96-plates to make final concentrations of 10 nM to 50 μM. The cells were cultured for 5 days before the Sulforhodamine B (SRB) assay was performed to determine the compound's cell growth inhibition activity.
(§2) Sulforhodamine B (Sigma, Canada) is a water-soluble dye that binds to the basic amino acids of cellular proteins. Thus, colorimetric measurement of the bound dye provides an estimate of the total protein mass that is related to the cell number. The cells are fixed in situ by gently aspirating off the culture media and adding 50 μl ice cold 10% Trichloroacetic Acid (TCA) per well and incubated at 4° C. for 30-60 min. The plates are washed with water five times and allowed to air dry for 5 min. Addition of 50 μl 0.4% (w/v) SRB solution in 1% (v/v) acetic acid to each well and incubatation for […] at RT completes the staining reaction. Following staining, plates are washed four times with 1% acetic acid to remove unbound dye and then allowed to air dry for 5 min. […] Absorbance is read at 570 nm.
(§3) The percentage (%) of relative growth inhibition was calculated by comparing to DMSO-treated only cells (100%). GI50's were determined for compounds with cytotoxic activity. The GI50 was calculated using GraphPad PRISM software (GraphPad Software, Inc., USA).

[3] = tested on: MCF-7 luminal breast cancer cell line; experiment: as above; format: cell-based; details: Homo sapiens, MCF7, 120 h, read-out: Cell Line GI50 Range MCF-7
Method: as §1, §2, §3

[4] = tested on: SW620 colon cancer cell line; experiment: as above; format: cell-based; details: Homo sapiens, SW-620, 120 h, read-out: Cell Line GI50 Range SW620
Method: as §1, §2, §3

[5] = tested on: human mammary epithelial primary cells (HMEC); experiment: as above; format: cell-based; details: 120 h, read-out: Cell Line GI50 Range HMEC
Method: as §1, §2, §3

[6] = tested on: MDA-MB-468 basal breast cancer cell line; experiment: as above; format: cell-based; details: Homo sapiens, MDA-MB-468, 120 h, read-out: Cell Line GI50 Range MDA-MB-468
Method: Breast cancer and normal cells were seeded at various concentrations, ranging from 1500 to 4000 per 80 μl according to cell growth rate, into 96-well plates 24 hours before compound overlay. Each 10 mM stock solution in 100% DMSO of the compounds was diluted with Opti-MEM I Reduced-Serum Medium (Invitrogen, Canada) to make concentration ranges from 50 nM to 250 μM. 20 μl from each concentration was added to the cells to make the final concentration range from 10 nM to 50 μM. The cells were cultured at 37° C. for 5 days before the Sulforhodamine B (SRB) assay was performed to assess cell survival. SRB is a water-soluble dye that binds to the basic amino acids of cellular proteins. Thus, colorimetric measurement of the bound dye provides an estimate of the total protein mass and is related to cell number. The cells were fixed in situ by gently aspirating off the culture media and adding 50 μl ice-cold 10% Tri-chloroacetic Acid (TCA) per well and incubation at 4° C. for 30-60 min. The plates were washed with tap water five times and allowed to air dry for 5 min. 50 μl of 0.4% (w/v) SRB solution in 1% (v/v) acetic acid was added per well and incubated for 30 mM at RT for staining. Following staining, plates were washed four times with 1% acetic acid to remove any unbound dye and then allowed to air dry for 5 min. The stain was solubilized with 100 μl of 10 mM Tris pH 10.5 per well. Absorbances were read at 570 nm. The cell survival percentage at each compound concentration was calculated over the cell DMSO control, which was growing in the presence of 0.1% DMSO (0.5% in the case of 50 μM compounds). Cell viability GI50 values were calculated using GraphPad PRISM software (GraphPad Software, Inc.).

[7] = biological target: Abl kinase (Homo sapiens, UniProt P00519); experiment: Kinase selectivity assay (CEREP, HTRF); format: biochemical; details: read-out: % Inhibition at 10 μM Concentration
Method: (§4) The inhibitory activity of selected compounds was evaluated against a panel of 45 different kinase enzymes by CEREP, France. The assays were performed using standard HTRF assay methods as documented by CEREP against the human orthologues of Abl kinase, Akt1/PKBa, AMPKa, BMX kinase (Etk), Brk, CaMK2a, CaMK4, CDC2/CDK1 (cycB), CHK1, CHK2, c-Met kinase, CSK, EphB4 kinase, ERK1, ERK2 (P42mapk), FGFR2 kinase, FGFR4 kinase, FLT-1 kinase (VEGFR1), FLT-3 kinase, Fyn kinase, IGF1R kinase, IRK (InsR), JNK 2, KDR kinase (VEGFR2), Lck kinase, Lyn kinase, MAPKAPK2, MEK1/MAP2K1, p38a kinase, p38d kinase, p38g kinase, PDGFRb kinase, PDK1, PKA, PKCa, PKCb1, PKCb2, PKCg, Ret kinase, ROCK2, RSK2, Src kinase, Syk, and TRKA. The % Inhibition was determined by the formula; % Inhibition=100×(1−(experimental value−background value)/(high activity control−background value)).

[8] = biological target: BMX (Etk) (Homo sapiens, UniProt P51813); experiment: Kinase selectivity assay (CEREP, HTRF); format: biochemical; details: read-out: % Inhibition at 10 μM Concentration
Sequence of BMX (Etk) (P51813 whole entry): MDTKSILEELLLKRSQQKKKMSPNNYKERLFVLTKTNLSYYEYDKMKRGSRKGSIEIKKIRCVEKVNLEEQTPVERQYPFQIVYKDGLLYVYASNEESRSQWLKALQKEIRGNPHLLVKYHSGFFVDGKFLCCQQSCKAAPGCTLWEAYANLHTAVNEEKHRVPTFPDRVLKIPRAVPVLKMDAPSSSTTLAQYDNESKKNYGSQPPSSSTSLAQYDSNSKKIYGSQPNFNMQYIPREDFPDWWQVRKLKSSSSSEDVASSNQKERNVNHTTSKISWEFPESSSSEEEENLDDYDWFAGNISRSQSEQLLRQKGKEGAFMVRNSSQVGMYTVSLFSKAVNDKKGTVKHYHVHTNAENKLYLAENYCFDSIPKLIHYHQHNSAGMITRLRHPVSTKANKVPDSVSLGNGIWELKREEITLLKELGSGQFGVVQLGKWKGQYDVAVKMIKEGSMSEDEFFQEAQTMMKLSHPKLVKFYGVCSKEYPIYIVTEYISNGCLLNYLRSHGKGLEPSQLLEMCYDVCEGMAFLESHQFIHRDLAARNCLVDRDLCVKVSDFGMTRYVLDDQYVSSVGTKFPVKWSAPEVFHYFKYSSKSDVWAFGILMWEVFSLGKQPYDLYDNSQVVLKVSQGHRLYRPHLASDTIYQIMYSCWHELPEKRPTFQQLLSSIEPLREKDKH
Method: as §4

[9] = biological target: CDC2/CDK1 (Homo sapiens, UniProt P06493); experiment: Kinase selectivity assay (CEREP, HTRF); format: biochemical; details: read-out: % Inhibition at 10 μM Concentration
Method: as §4

[10] = biological target: CHK1 (Homo sapiens, UniProt O14757); experiment: Kinase selectivity assay (CEREP, HTRF); format: biochemical; details: read-out: % Inhibition at 10 μM Concentration
Sequence of CHK1 (O14757 whole entry): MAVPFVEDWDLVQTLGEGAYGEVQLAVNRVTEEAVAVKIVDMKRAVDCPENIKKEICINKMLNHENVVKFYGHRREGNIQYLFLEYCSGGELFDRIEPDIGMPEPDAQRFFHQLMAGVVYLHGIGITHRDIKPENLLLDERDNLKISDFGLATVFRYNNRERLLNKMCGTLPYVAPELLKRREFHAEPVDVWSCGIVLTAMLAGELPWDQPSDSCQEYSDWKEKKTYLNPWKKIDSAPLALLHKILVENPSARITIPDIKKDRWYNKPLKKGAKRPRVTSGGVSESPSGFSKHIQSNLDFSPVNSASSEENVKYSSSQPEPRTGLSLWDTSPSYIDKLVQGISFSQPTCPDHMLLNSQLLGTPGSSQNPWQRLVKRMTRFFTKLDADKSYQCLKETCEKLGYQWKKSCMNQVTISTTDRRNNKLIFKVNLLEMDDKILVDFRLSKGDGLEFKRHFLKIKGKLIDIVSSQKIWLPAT
Method: as §4

[11] = biological target: EphB4 (Homo sapiens, UniProt P54760); experiment: Kinase selectivity assay (CEREP, HTRF); format: biochemical; details: read-out: % Inhibition at 10 μM Concentration
Sequence of EphB4 (P54760 16-987): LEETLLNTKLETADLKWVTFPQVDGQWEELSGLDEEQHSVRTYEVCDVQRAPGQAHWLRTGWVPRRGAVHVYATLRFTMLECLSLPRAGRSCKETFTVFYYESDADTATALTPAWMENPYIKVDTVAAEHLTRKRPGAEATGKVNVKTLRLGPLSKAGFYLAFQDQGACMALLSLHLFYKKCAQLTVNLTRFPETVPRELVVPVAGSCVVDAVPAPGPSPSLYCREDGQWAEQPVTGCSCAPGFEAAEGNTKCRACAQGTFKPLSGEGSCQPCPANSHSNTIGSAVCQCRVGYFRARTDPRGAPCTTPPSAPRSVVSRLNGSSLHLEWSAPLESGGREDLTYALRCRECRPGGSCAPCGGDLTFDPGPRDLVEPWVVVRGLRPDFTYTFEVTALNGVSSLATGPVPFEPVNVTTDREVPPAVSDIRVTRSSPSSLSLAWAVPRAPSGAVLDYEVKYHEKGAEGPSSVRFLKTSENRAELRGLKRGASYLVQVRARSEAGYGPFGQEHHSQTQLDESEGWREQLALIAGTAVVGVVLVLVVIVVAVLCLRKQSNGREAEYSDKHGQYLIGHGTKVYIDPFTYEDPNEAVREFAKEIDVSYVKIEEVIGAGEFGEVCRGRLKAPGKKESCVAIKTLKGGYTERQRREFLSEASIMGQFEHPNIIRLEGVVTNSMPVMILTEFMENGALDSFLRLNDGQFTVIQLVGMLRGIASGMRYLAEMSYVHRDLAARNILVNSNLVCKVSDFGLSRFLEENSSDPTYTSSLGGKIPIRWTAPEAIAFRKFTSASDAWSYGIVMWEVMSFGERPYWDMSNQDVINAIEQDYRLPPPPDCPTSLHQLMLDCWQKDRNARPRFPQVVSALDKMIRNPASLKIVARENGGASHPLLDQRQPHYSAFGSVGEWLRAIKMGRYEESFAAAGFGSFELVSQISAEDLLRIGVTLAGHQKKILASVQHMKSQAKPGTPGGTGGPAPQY
Method: as §4

[12] = biological target: IRK (InsR) (Homo sapiens, UniProt P06213); experiment: Kinase selectivity assay (CEREP, HTRF); format: biochemical; details: read-out: % Inhibition at 10 μM Concentration
Sequence of IRK (InsR) (P06213 28-1382): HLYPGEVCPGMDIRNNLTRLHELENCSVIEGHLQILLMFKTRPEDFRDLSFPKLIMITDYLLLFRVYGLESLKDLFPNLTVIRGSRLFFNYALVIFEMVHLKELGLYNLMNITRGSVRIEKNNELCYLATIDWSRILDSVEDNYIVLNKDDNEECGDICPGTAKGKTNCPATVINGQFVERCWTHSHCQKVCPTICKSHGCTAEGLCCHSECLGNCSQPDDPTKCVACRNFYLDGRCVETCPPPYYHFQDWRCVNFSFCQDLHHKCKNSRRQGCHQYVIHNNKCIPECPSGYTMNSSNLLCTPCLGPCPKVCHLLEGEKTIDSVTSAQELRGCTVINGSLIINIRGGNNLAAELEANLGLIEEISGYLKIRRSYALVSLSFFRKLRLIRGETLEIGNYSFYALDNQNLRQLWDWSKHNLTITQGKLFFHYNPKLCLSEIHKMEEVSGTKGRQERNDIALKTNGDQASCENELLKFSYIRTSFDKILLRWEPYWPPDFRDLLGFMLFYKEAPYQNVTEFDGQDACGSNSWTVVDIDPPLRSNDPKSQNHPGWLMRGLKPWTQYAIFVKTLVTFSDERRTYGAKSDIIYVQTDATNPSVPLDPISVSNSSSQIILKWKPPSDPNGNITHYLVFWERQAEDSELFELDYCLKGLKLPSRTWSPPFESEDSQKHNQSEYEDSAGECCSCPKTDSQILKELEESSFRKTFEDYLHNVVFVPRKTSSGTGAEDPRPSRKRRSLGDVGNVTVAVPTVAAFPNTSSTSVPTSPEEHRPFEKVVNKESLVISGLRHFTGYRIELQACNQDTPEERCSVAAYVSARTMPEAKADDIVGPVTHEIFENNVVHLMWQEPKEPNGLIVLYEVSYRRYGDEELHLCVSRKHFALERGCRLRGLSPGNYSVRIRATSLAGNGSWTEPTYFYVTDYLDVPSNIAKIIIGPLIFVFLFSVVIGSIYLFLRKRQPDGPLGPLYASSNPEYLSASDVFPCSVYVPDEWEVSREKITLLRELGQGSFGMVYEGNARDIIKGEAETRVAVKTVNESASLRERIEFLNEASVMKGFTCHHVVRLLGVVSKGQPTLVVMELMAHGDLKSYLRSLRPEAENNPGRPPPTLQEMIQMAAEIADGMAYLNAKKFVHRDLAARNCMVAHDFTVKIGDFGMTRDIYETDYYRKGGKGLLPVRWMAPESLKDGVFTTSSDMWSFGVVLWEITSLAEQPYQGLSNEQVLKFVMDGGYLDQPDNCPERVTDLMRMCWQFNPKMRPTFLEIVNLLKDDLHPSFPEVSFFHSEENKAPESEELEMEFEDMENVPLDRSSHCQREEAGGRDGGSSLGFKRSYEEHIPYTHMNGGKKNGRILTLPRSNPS
Method: as §4

[13] = biological target: PDGFRbeta (Homo sapiens, UniProt P09619); experiment: Kinase selectivity assay (CEREP, HTRF); format: biochemical; details: read-out: % Inhibition at 10 μM Concentration
Method: as §4

[14] = biological target: PKCalpha (Homo sapiens, UniProt P17252); experiment: Kinase selectivity assay (CEREP, HTRF); format: biochemical; details: read-out: % Inhibition at 10 μM Concentration
Method: as §4

[15] = biological target: ROCK2 (Homo sapiens, UniProt O75116); experiment: Kinase selectivity assay (CEREP, HTRF); format: biochemical; details: read-out: % Inhibition at 10 μM Concentration
Method: as §4

[16] = biological target: RSK2 (Homo sapiens, UniProt P51812); experiment: Kinase selectivity assay (CEREP, HTRF); format: biochemical; details: read-out: % Inhibition at 10 μM Concentration
Sequence of RSK2 (P51812 whole entry): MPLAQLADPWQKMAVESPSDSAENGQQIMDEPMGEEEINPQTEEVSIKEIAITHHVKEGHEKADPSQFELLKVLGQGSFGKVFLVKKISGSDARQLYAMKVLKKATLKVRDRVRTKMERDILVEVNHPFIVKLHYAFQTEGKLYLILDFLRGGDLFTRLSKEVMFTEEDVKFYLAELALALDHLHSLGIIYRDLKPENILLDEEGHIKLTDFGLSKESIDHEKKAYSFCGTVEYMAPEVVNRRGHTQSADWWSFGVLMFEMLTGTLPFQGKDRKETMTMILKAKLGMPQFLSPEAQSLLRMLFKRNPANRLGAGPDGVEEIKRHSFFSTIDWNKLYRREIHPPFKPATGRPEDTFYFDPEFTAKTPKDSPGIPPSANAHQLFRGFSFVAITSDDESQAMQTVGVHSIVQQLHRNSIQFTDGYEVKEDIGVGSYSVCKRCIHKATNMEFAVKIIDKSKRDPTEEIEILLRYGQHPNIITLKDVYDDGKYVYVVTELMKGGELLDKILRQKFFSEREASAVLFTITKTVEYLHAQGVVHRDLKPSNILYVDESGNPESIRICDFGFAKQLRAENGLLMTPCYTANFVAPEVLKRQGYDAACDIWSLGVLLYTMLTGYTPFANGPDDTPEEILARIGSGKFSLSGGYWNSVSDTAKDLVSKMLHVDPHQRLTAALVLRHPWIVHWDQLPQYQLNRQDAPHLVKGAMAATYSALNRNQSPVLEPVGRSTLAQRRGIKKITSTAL
Method: as §4

[17] = biological target: Ret (Homo sapiens, UniProt P07949); experiment: Kinase selectivity assay (CEREP, HTRF); format: biochemical; details: read-out: % Inhibition at 10 μM Concentration
Method: as §4

[18] = biological target: Src (Homo sapiens, UniProt P12931); experiment: Kinase selectivity assay (CEREP, HTRF); format: biochemical; details: read-out: % Inhibition at 10 μM Concentration
Sequence of Src (P12931 whole entry): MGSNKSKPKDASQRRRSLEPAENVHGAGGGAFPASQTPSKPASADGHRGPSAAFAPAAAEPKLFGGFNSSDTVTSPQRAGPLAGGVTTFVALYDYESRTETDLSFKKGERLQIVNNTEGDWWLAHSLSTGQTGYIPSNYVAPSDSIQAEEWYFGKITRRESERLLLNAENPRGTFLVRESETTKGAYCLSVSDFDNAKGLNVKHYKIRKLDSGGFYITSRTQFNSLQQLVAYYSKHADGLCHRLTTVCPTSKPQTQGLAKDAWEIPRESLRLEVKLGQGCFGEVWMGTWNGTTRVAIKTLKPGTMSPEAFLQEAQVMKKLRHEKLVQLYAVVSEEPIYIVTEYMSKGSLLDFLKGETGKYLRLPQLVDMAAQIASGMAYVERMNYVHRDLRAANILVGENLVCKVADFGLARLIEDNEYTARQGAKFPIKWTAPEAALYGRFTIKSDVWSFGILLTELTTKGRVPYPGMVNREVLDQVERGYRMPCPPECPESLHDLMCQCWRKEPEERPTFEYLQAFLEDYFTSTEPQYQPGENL
Method: as §4

[19] = biological target: TRKA (Homo sapiens, UniProt P04629); experiment: Kinase selectivity assay (CEREP, HTRF); format: biochemical; details: read-out: % Inhibition at 10 μM Concentration
Method: as §4

Row | SMILES | IC50 [1] [µM] | GI50 [2] [µM] | GI50 [3] [µM] | GI50 [4] [µM] | GI50 [5] [µM] | GI50 [6] [µM] | inhibition at 10 µM [7] [%] | inhibition at 10 µM [8] [%] | inhibition at 10 µM [9] [%] | inhibition at 10 µM [10] [%] | inhibition at 10 µM [11] [%] | inhibition at 10 µM [12] [%] | inhibition at 10 µM [13] [%] | inhibition at 10 µM [14] [%] | inhibition at 10 µM [15] [%] | inhibition at 10 µM [16] [%] | inhibition at 10 µM [17] [%] | inhibition at 10 µM [18] [%] | inhibition at 10 µM [19] [%]
1 | COc1ccc2c(c1)[C@@]1(C[C@@H]1c1ccc3c(-c4ccc(N5CCN(C)CC5)nc4)n[nH]c3c1)C(=O)N2 (racemic) [Compound 2] | < 5 | < 5 | < 5 | < 5 | 20 to 50 | < 5 | – | – | – | – | – | – | – | – | – | – | – | – | –
2 | CN(C)Cc1ccc(/C=C/c2n[nH]c3cc([C@H]4C[C@@]45C(=O)Nc4ccccc45)ccc23)cc1 (racemic) [Compound 35] | – | < 5 | < 5 | < 5 | 5 to 20 | < 5 | 100 | 39 | 60 | 43 | 65 | 5 | 59 | 6 | 32 | 22 | 86 | 51 | 101
3 | COc1ccc2c(c1)/C(=C\c1ccc3c(/C=C/c4ccc(N5CCN(C)CC5)nc4)n[nH]c3c1)C(=O)N2 [Compound 3] | < 5 | – | – | – | – | – | 23 | 0 | 11 | 0 | -1 | 2 | 14 | 7 | -20 | -4 | 33 | 26 | 43
